Test results from US7767824B2, “Heterocyclic compounds and cerebral function improvers containing the same as the active ingredient” (Zenyaku Kogyo Kabushiki Kaisha, priority 2001, dated 2010).
Marks after values point to notes of the source that are not given here.

Key:
[1] = system: scopolamine-induced amnesia of rats; experiment: Effects on scopolamine-induced amnesia, passive avoidance task (oral administration); assay type: in vivo, rat; conditions: 60 min before trial, scopolamine hydrobromide 2 mg/kg i.p., latency 24 h after shock, male Sprague Dawley rats; for inhibition in vivo at 0.01 mg/kg / inhibition in vivo at 1 mg/kg: Rattus norvegicus, po, read-out: Inhibitory rate (%)
Excerpt: Male rats of the Strague Dawley strain at 8 weeks of age (260±2 g body weight) were used for evaluation through passive avoidance task. The apparatus of passive avoidance task comprises illuminated and dark chambers which are separated from each other by a wall with a door. Floors are constituted by grids made of stainless steel; only the grid in the dark chamber is furnished with wiring for electrification.
Effected on the first and second days of testing was preparative training; each rat was placed in the illuminated chamber and left for 3 minutes to habituate to the apparatus. On the third day of testing, the rats were individually placed in the illuminated chamber and after entering the dark chamber, the door was closed and the floor grid was electrified to deliver electric shock (100 V, 0.4 mA, a period of 0.8 sec). In order to induce amnesia, scopolamine hydrobromide (2 mg/kg) was intraperitoneally injected 20 minutes before the electric shock was delivered. Retention in memory on the electric shock was tested 24 hours later; more specifically, retention in passive avoidance was measured in terms of a time interval (latency) from placement of each rat in the illuminated chamber to its entry into the dark chamber. The latency over 300 seconds was recorded as 300 seconds. Respective test compounds were suspended in an aqueous solution of 1% carboxymethyl cellulose and orally administered at a dose of 0.01 or 1 mg/kg 60 minutes before the trial.
Antiamnesic effects of the test compounds were evaluated by inhibitory rate (%) which is calculated by the following formula:
[formula] wherein T stands for latency and SC, administration of scopolamine hydrobromide. Experimental results are shown in the following table in which, as to each of the test compounds, only the dose showing higher inhibitory rate was indicated.

melting point | Compound | inhibition in vivo at 0.01 mg/kg ([1]; dose 0.01 mg/kg p.o.) [%] | other results
149.5 °C (dec.) | CC=CCC1(CC=CC)C(=O)N=C2N=CC=CN21 (centres unmarked) [compound 17, 3,3-di(2-butenyl)imidazo[1,2-a]pyrimidin-2(3H)-one] | 54.4 | –
– | Oc1nc2ccccn2c1Cc1ccc2ccccc2c1 [compound 10, 2-hydroxy-3-(2-naphtylmethyl)imidazo[1,2-a]pyridin] | – | Inhibitory rate (%) ([1]; dose 0.01 mg/kg p.o.): 40.8* %
> 300 °C | O=C1N=C2N=CC=CN2C1(Cc1ccccc1)Cc1ccccc1 [compound 3, 3,3-dibenzylimidazo[1,2-a]pyrimidin-2(3H)-one] | 60.3 | –
– | O=C1N=C2C=CC=CN2C12Cc1cc3ccccc3cc1C2 [compound 11, spiro[imidazo[1,2-a]pyridin-2(3H)-one-3,2′-benzo[f]-indan]] | – | Inhibitory rate (%) ([1]; dose 0.01 mg/kg p.o.): 80.4** %
– | CCCC1(CCC)C(=O)N=C2CCCCN21 [compound 15, 3,3-dipropyl-5,6,7,8-tetrahydroimidazo[1,2-a]pyridin-2(3H)-one] | – | inhibition in vivo at 1 mg/kg ([1]; dose 1 mg/kg p.o.): 61.5%
– | O=C1N=C2C=CC=CN2C12Cc1cc3nsnc3cc1C2 [compound 23, spiro[imidazo[1,2-a]pyridin-2(3H)-one-3,2′-((1,2,5-thiadiazo)[4,5-c]indan)]] | – | Inhibitory rate (%) ([1]; dose 0.01 mg/kg p.o.): 88.2** %
– | CN1C=NC(Cc2ccccc2)(Cc2ccccc2)C1=O [compound 16, 4,4-dibenzyl-1-methyl-5-oxo-4,5-dihydroimidazol] | 73.3 | –
– | O=C1N(c2ccccc2)c2ccccc2C1(Cc1ccncc1)Cc1ccncc1 [compound A, 3,3-bis(4-pyridylmethyl)-1-phenylindolin-2-one, reference compound] | 8.8 | inhibition in vivo at 1 mg/kg ([1]; dose 1 mg/kg p.o.): 20.9%
– | O=C1N=C2C=CC=CN2C12Cc1cccc(F)c1C2 (centres unmarked) [compound 18, spiro[imidazo[1,2-a]pyridin-2(3H)-one-3,2′-(4′-fluoroindan)]] | – | Inhibitory rate (%) ([1]; dose 0.01 mg/kg p.o.): 90.3** %
192 °C (dec.) | O=C1N=C2N=CC=CN2C1(Cc1cccs1)Cc1cccs1 [compound 8, 3,3-bis(2-thienylmethyl)imidazo[1,2-a]pyrimidin-2(3H)-one] | 58.9 | –
– | O=C1N=C2C=CC=CN2C12Cc1ccc(C(F)(F)F)cc1C2 (centres unmarked) [compound 26, spiro[imidazo[1,2-a]pyridin-2(3H)-one-3,2′-(5′-trifluoromethylindan)]] | – | Inhibitory rate (%) ([1]; dose 1 mg/kg p.o.): 74.3** %
– | COc1cc2c(cc1OC)C(=O)C(CC1CCN(Cc3ccccc3)CC1)C2 (racemic) [compound C, (R,S)-1-benzyl-4-(5,6-dimethoxy-1-indanon-2-yl)-methylpiperidine, reference compound] | 12.5 | inhibition in vivo at 1 mg/kg ([1]; dose 1 mg/kg p.o.): 24.7%
264 to 267 °C | N#Cc1ccc(CC2(Cc3ccc(C#N)cc3)C(=O)N=C3SC=CN32)cc1 [compound 5, 5,5-bis(4-cyanobenzyl)imidazo[2,1-b]thiazol-6(5H)-one] | 49.6 | –
286 °C (dec.) | O=C1N=C2SC=CN2C1(Cc1cccs1)Cc1cccs1 [compound 7, 5,5-bis(2-thienylmethyl)imidazo[2,1-b]thiazol-6(5H)-one] | – | –
35 to 40 °C | CCCCC1(CCCC)C(=O)N=C2CCCCN21 [compound 13, 3,3-dibutyl-5,6,7,8-tetrahydroimidazo[1,2-a]pyridin-2 (3H)-one] | – | inhibition in vivo at 1 mg/kg ([1]; dose 1 mg/kg p.o.): 49.6%
– | O=C1N=C2CCCCN2C12Cc1cc3ccccc3cc1C2 [compound 32, spiro[5,6,7,8-tetrahydroimidazo[1,2-a]pyridin-2(3H)-one-3,2′-benzo[f]indan]] | – | Inhibitory rate (%) ([1]; dose 0.01 mg/kg p.o.): 61.4* %
– | O=C1N=C2CCCCN2C12Cc1ccccc1C2 [compound 33, spiro[5,6,7,8-tetrahydroimidazo[1,2-a]pyridin-2(3H)-one-3,2′-indan]] | – | Inhibitory rate (%) ([1]; dose 0.01 mg/kg p.o.): 66.1** %
– | O=C1N=C2C3=C(C=CN2C12CCCC2)CCCC3 [compound 30, spiro[7,8,9,10-tetrahydroimidazo[2,1-a]isoquinolin-2(3H)-one-3,1′-cyclopentane]] | – | Inhibitory rate (%) ([1]; dose 1 mg/kg p.o.): 89.5** %

melting point | Compound | inhibition in vivo at 0.01 mg/kg ([1]; dose 0.01 mg/kg p.o.) [%] | other results
– | O=C1N=C2c3ccccc3C=CN2C12CCCC2 [compound 31, spiro[imidazo[2,1-a]isoquinolin-2(3H)-one-3,1′-cyclopentane]] | – | Inhibitory rate (%) ([1]; dose 0.01 mg/kg p.o.): 56.7* %
– | O=C1N=C2SC=CN2C1(Cc1ccc(F)cc1)Cc1ccc(F)cc1 [compound 1, 5,5-bis(4-fluorobenzyl)imidazo[2,1-b]thiazol-6(5H)-one] | – | inhibition in vivo at 1 mg/kg ([1]; dose 1 mg/kg p.o.): 56.1%
> 300 °C | Cc1ccc(CC2(Cc3ccc(C)cc3)C(=O)N=C3SC=CN32)cc1 [compound 4, 5,5-bis(4-methylbenzyl)imidazo[2,1-b]thiazol-6(5H)-one] | 49.8 | –
– | spiro[imidazo[2,1-a]isoquinolin-2(3H)-one-3,21-(1,2,5-thiadiazo)[4,5-c]indan)] [compound 24] | – | Inhibitory rate (%) ([1]; dose 0.01 mg/kg p.o.): 97.1** %
– | COc1ccc2c(c1)CC1(C2)C(=O)N=C2C=CC=CN21 (centres unmarked) [compound 19, spiro[imidazo[1,2-a]pyridin-2(3H)-one-3,2′-(5′-methoxyindan)]] | – | Inhibitory rate (%) ([1]; dose 1 mg/kg p.o.): 83.4** %
182 °C (dec.) | O=C1N=C2C=CC=CN2C1Cc1ccccc1 (centres unmarked) [compound 14, 3-benzylimidazo[1,2-a]pyridin-2(3H)-one] | 53.6 | –
> 300 °C | CC1=CN2C(=NC(=O)C2(Cc2ccccc2)Cc2ccccc2)S1 [compound 6, 5,5-dibenzyl-2-methylimidazo[2,1-b]thiazol-6(5H)-one] | 66.6 | –
> 300 °C | O=C1N=C2SC=CN2C1(Cc1ccccc1)Cc1ccccc1 [compound 2, 5,5-dibenzylimidazo[2,1-b]thiazol-6(5H)-one] | 86.9 | –
– | O=C1N=C2C=CC=CN2C12Cc1ccc3ccccc3c1C2 (centres unmarked) [compound 27, spiro[imidazo[1,2-a]pyridin-2(3H)-one-3,2′-benzo[e]-indan]] | – | Inhibitory rate (%) ([1]; dose 1 mg/kg p.o.): 64.9** %
– | O=C1N=C2c3ccccc3C=CN2C12CC=CC2 [compound 28, spiro[imidazo[2,1-a]isoquinolin-2 (3H)-one-3,1′-(3′-cyclopentene)]] | – | Inhibitory rate (%) ([1]; dose 0.01 mg/kg p.o.): 88.0** %
– | O=C1N=C2C=CC=CN2C12Cc1ccc(I)cc1C2 (centres unmarked) [compound 20, spiro[imidazo[1,2-a]pyridin-2(3H)-one-3,2′-(5′-iodoindan)]] | – | Inhibitory rate (%) ([1]; dose 1 mg/kg p.o.): 72.4** %
– | O=C1N=C2c3ccccc3C=CN2C12Cc1ccccc1C2 [compound 22, spiro[imidazo[2,1-a]isoquinolin-2(3H)-one-3,2′-indan]] | – | Inhibitory rate (%) ([1]; dose 0.01 mg/kg p.o.): 76.5** %
– | O=C1N=C2N=CC=CN2C12Cc1ccccc1C2 [compound 25, spiro[imidazo[1,2-a]pyrimidin-2(3H)-one-3,2′-indan]] | – | Inhibitory rate (%) ([1]; dose 1 mg/kg p.o.): 78.3* %
233 to 236 °C | O=C1N=C2SCCN2C1(Cc1ccccc1)Cc1ccccc1 [compound 9, 5,5-dibenzyl-2,3-dihydroimidazo[2,1-b]thiazol-6(5H)-one] | 86.6 | –
218 to 220 °C | O=C1N=C2CCCCN2C1(C1CCCCC1)C1CCCCC1 [compound 12, 3,3-dicyclohexyl-5,6,7,8-tetrahydroimidazo[1,2-a]-pyridin-2(3H)-one] | 53.5 | –
– | Nc1c2c(nc3ccccc13)CCCC2 [compound B, 9-amino-1,2,3,4-tetrahydro-acridine, reference compound] | 24.1 | inhibition in vivo at 1 mg/kg ([1]; dose 1 mg/kg p.o.): 54.9%
– | N#Cc1cccc2c1CC1(C2)C(=O)N=C2C=CC=CN21 (centres unmarked) [compound 21, spiro[imidazo[1,2-a]pyridin-2(3H)-one-3,2′-(4′-cyanoindan)]] | – | Inhibitory rate (%) ([1]; dose 1 mg/kg p.o.): 52.4* %
– | O=C1N=C2C(OCc3ccccc3)=CC=CN2C12CC=CC2 [compound 29, spiro[8-benzyloxyimidazo[1,2-a]pyridin-2(3H)-one-3,1′-(3′-cyclopentene)]] | – | Inhibitory rate (%) ([1]; dose 1 mg/kg p.o.): 87.7** %
